Assay [1] concerns the target Interleukin-1 receptor-associated kinase 1 (Homo sapiens, UniProt P51617). The assay can be described thus: IRAK1 Enzymatic Assay: IRAK1 is a human purified recombinant enzyme (His-TEV-IRAK1 (194-712)) In this assay, IRAK-1 hydrolyses ATP and autophosphorylates.Measurement of IRAK-1 inhibition is performed in streptavidin coated 384 well FlashPlate (PerkinElmer #SMP410A).His-TEV-IRAK-1 (15 ng/well), ATP (1 μM, [33P]ATP 0.25 μCi/well) and compounds in DMSO (range of concentrations from 20 μM to 1 nM) or controls (2% DMSO) are incubated for 3 hours at 30° C. in assay buffer: Hepes pH 7.0 50 mM, Fatty acid-free BSA 0.1%, Dithiothreitol DTT 2 mM, MgCl2 10 mM, EGTA 0.5 mM, Triton-X-100 0.01%. Kinase reaction is stopped by addition of EDTA. Supernatant is discarded, plates are washed three times with 150 mM NaCl and radioactivity is then measured in a Microbeta Trilux reader.

Assay [2] has as its target T1, Interleukin-1 receptor-associated kinase 4 (Homo sapiens, UniProt Q9NWZ3).
T1 sequence (Q9NWZ3 whole entry): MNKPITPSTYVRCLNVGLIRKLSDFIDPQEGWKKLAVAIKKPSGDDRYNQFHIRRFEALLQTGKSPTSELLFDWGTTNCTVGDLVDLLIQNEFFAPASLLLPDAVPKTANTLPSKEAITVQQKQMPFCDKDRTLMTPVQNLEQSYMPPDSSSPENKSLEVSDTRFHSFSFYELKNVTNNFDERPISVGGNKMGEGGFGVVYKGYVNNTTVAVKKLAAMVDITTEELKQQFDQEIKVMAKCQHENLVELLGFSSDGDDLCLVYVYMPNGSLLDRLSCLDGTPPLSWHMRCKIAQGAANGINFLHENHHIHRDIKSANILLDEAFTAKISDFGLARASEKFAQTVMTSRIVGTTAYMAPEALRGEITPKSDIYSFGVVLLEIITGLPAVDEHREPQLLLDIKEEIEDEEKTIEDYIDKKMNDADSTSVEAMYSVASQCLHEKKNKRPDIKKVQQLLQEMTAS
Nature of the assay: IRAK4 Enzymatic Assay: IRAK4 is a human purified recombinant enzyme ([…] IRAK4 hydrolyses ATP, autophosphorylates and phosphorylates a Serine/Threonine generic peptidic substrate (STK: 61ST1BLC from CisBio International based in Bagnols/Cèze FR).Measurement of IRAK-4 inhibition is performed in streptavidin coated 384 well FlashPlate (PerkinElmer #SMP410A). His-TEV-IRAK4 (20 ng/well), ATP (2 μM, [33P]ATP 0.25 μCi/well), STK1-biotin peptide (300 nM) and compounds in DMSO (range of concentrations from 20 μM to 1 nM) or controls (2% DMSO) are incubated for 3 hours at 30° C. in assay buffer: Hepes pH 7.0 50 mM, Fatty acid-free BSA 0.1%, Dithiothreitol DTT 2 mM, MgCl2 10 mM, EGTA 0.5 mM, Tween-20 0.01%, MnCl2 5 mM.Kinase reaction is stopped by addition of EDTA. Supernatant is discarded, plates are washed three times with 150 mM NaCl and radioactivity is then measured in a Microbeta Trilux reader.

Sequence of Interleukin-1 receptor-associated kinase 1 (P51617 whole entry): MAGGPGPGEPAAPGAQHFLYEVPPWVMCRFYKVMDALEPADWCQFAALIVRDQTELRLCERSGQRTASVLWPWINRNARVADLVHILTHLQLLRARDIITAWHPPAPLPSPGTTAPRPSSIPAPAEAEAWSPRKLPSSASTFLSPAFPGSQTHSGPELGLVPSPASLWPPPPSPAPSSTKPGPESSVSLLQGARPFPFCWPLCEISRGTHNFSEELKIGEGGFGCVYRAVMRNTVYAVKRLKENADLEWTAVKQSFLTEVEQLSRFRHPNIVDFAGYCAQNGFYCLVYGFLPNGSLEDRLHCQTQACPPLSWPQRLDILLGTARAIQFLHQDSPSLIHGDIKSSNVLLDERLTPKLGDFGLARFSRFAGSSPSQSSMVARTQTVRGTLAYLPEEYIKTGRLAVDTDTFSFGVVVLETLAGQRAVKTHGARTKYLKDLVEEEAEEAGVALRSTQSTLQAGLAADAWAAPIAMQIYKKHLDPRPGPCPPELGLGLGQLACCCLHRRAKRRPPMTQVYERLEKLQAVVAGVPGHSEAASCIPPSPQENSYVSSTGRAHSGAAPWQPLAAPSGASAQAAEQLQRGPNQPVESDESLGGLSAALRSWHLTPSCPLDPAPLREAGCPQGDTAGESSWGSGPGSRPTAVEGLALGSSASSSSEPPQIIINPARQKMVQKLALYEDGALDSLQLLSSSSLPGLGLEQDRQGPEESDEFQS

The IC50 is the concentration that inhibits the measured activity by half. With `O=C1Nc2nc3ccccc3n2CCn2cc(cn2)-c2ccc(=O)n(n2)Cc2cccc1c2`, the half-maximal inhibitory concentration (IC50) in assay [1] and in assay [2] was under 100 nM throughout.

The values above are taken from ChEMBL document CHEMBL5725580, “Macrocyclic pyridazinone derivatives” (2018).
